{"source": "patent US12280087B2", "about": "“Composition comprising self-assembling peptides for use in treatment of gingivitis, periodontitis and/or peri-implantitis” (Credentis AG, priority 2016, dated 2025)", "key": {"S. sanguinis": {"tested_on": "S. sanguinis", "test": "Release of antibiotics from self-assembling peptide gels, bacterial growth by turbidity OD600", "type": "cell-based", "conditions": "antibiotic 150 mg/ml in SAP gels 15 mg/ml (P11-4, P11-13/14, P11-28/29); OD600 normalized to gel without antibiotic; over 120 hours", "description": "(§1) FIG. 1: Bacterial density after release of antibiotics (150 mg/ml) from self-assembling peptide gels (15 mg/ml), and the impact thereof to the growth of P. gingivalis (A-C) and S. sanguinis (D-F). Circles: metronidazol, stars: tetracycline, triangle: ciprofloxacin, squares: doxycycline hyclate; control: gel without API\n(§2) Hydrogels comprising self-assembling peptides with (150 mg/ml) and without antibiotics were formed by dissolving the respective peptides at a concentration of 15 mg/ml or equimolar for combination SAP in a concentration of −10 mg*ml-1 as follows:\n(§3) For the gels formed by peptides P11-13 and P11-14: or for P11-28 and P11-29, equimolar solutions of peptides were prepared in a well plate, and pH corrected to physiological conditions, resulting in a gel.\n(§4) Furthermore 100 uL/well of a defined anaerobic P. gingivalis or aerobic S. anguines bacterial culture (10^7 CFU/ml e.g. 990 μl BHI medium, 10 μl 10^8 CFU/ml bacteria suspension) were added onto the gels. Impact on growth was assessed by measuring turbidity at OD600 nm. Data obtained with antibiotics were normalized to control (gel+bacteria+medium without antibiotics) to analyse the relative bacterial density. 50 μl/well of medium were added every second day."}, "P. gingivalis": {"tested_on": "P. gingivalis", "test": "Release of antibiotics from self-assembling peptide gels, bacterial growth by turbidity OD600", "type": "cell-based", "conditions": "antibiotic 150 mg/ml in SAP gels 15 mg/ml (P11-4, P11-13/14, P11-28/29); OD600 normalized to gel without antibiotic; over 120 hours", "description": "as §1, §2, §3, §4"}, "PDLF cells": {"tested_on": "PDLF cells", "test": "Stability of SAP matrices in contact with PDLF cells or medium (peptide in supernatant, UV-spectroscopy)", "type": "cell-based", "conditions": "20 mg/ml P11-4, 15 mg/ml others; 2000 PDLF cells/well or medium; 24 h", "description": "Different SAP hydrogels or matrices (20 mg/ml for P11-4; 15 mg/ml for […]) were contacted with 2000 PDLF cells/well or medium. Degradation was measured after 24 h by detection of peptide concentration in the supernatant by UV-spectroscopy. No significant effect of the cells was seen."}, "[1]": {"tested_on": "periodontal ligament fibroblasts (PDLF)", "test": "In vitro periodontal pocket model, migration of PDLF out of donor compartment", "type": "cell-based, human", "conditions": "P11-4 20 mg/ml, all others 15 mg/ml", "description": "FIG. 6: Cell migration of a 15 mg/ml P11-4 gel on a periodontal ligament model after 8 days of incubation. Human Periodontal Ligament cells were placed in a cell pool (A) and the SAP gel (C) placed on the human dentin (B). The cell/SAP-gel/dentin was then incubated for 8 days and visually assessed resulting in migration of up to 5 mm. Scale bar: 1 mm\nAn in vitro model of a periodontal pocket (Meyer et al., 2016) was used to assess the migration distance of periodontal ligament fibroblasts (PDLF) out of the donor compartment. In brief, to determine early processes of tissue healing, three endpoints were investigated: Adhesion, proliferation and migration of human primary periodontal ligament fibroblasts (PDLF, ScienCell). In order to mimic the in vivo conditions as close as possible, pure bovine dentin surface served as underlying structure. Adhesion and proliferation of PDLF was assessed in a time dependent manner using ATP viability Kit (Promega). Visualization of the cells on the matrix was realized by SEM. For evaluation of cell adhesion and proliferation, Emdogain® (Straumann) was used as a positive control, as it has already proven its efficacy to promote periodontal regeneration in vivo. […]\nPDLF cells were allowed to migrate in different SAP or collagen hydrogels (P11-4: 20 mg/ml; all others 15 mg/ml), as explained in Example L. Migration distances were analyzed after 4 and 8 days. […]"}, "[2]": {"test": "Mechanical properties (G′) of SAP gels in different ions and buffer systems", "type": "physicochemical", "description": "FIG. 5: Mechanical properties are dependent on the presence of different ions and buffer systems. […] Since NO3− are monovalent ions, and ionic strength of the solution was below 130 mM, P11-8 self-assembling was slowed down. On the other hand self-assembling kinetic of P11-8 with DMEM and NaCl solution is very similar."}, "[3]": {"tested_on": "hPDLF cells (human periodontal ligament fibroblasts)", "test": "Cell viability on SAP hydrogels compared to Emdogain (PrestoBlue)", "type": "cell-based", "conditions": "all concentrations tested (15, 20, 30 mg/ml SAP); 24, 48, 96 h; Emdogain 30 mg/ml", "description": "(§5) Left column 15 mg/ml SAP, middle column: 20 mg/ml SAP, right column 30 mg/ml SAP for each SAP, for Emdogain®, the concentration is constant at 30 mg/ml, and the three columns show 24, 48 and 96 h administration. […] Collagen (1.5 mg/ml) was used as a test system control. Cell proliferation was measured by the metabolic conversion of PrestoBlue viability reagent. Data were normalized in respect to values measured at day 1.\n(§6) Proliferation of hPDLF (periodontal ligament fibroblasts) and SAOS-2 (Sarcoma osteogenic) cells on self-assembling peptides (P11-4, P11-8, P11-13 and P11-14, 15 mg/ml SAP, 20 mg/ml SAP, 30 mg/ml SAP respectively) was compared to the current gold standard Emdogain® and/or collagen after 24, 48 and 96 h. For Emdogain®, the concentration is constant at 30 mg/ml. Viability was measured by PrestoBlue® Cell Viability Reagent A13261."}, "[4]": {"tested_on": "SAOS-2 cells (Sarcoma osteogenic)", "test": "Cell viability on SAP hydrogels compared to Emdogain (PrestoBlue)", "type": "cell-based", "description": "as §5, §6"}, "[5]": {"test": "Self-assembly at neutral pH, visual appearance", "type": "physicochemical", "conditions": "1 part RADA16 solution (1 wt % in water) added to 1 part DMEM, neutral pH 7"}}, "note": "Where no end group is shown, it is not given here. [ ]: non-standard residue; d: D form. Orn = NCCC[C@H](N)C(=O)O"}
{"compound": "Cc1ncc([N+](=O)[O-])n1CCO", "note": "[metronidazole]", "values": [{"measurement": "impact of antibiotic released from SAP gel on bacterial growth (relative bacterial density)", "setting": "S. sanguinis", "result": "low effectivity in most systems at this concentration"}, {"measurement": "impact of antibiotic released from SAP gel on bacterial growth (relative bacterial density)", "setting": "P. gingivalis", "result": "low effectivity in most systems at this concentration"}]}
{"compound": "QQRFOWOFEQQ (QQRF[Orn]W[Orn]FEQQ) [P11-8, self-assembling peptide]", "values": [{"measurement": "degradation (peptide concentration in the supernatant)", "setting": "PDLF cells", "result": "degraded slightly more than the other SAP"}, {"measurement": "homogenous migration of PDLF cells, visually", "setting": "[1]", "result": "most obvious"}, {"measurement": "migration distance of PDLF cells compared to collagen", "setting": "[1]; after 4 days", "result": "slightly increased compared to collagen"}, {"measurement": "storage modulus G′ / self-assembling kinetic of gel", "setting": "[2]; DMEM pH 7.4 versus Tris-NaCl", "result": "very similar"}, {"measurement": "storage modulus G′ of gel", "setting": "[2]; artificial saliva (Tris 120 mM, Ca(NO3) 4 mM, KH2PO4 2.4 mM, pH 7.2) versus Tris-NaCl, DMEM, Tris MgSO4", "result": "lowest storage modulus was achieved with artificial saliva"}, {"measurement": "cell viability compared to Emdogain", "setting": "[3]", "result": "increased cell viability of hPDLF cells compared to Emdogain®"}, {"measurement": "cell viability compared to Emdogain", "setting": "[4]; 30 mg/ml SAP", "result": "strongly increased"}, {"measurement": "cell viability compared to Emdogain", "setting": "[4]; the other concentrations (15, 20 mg/ml SAP)", "result": "slightly increased or about equal"}]}
{"compound": "RADA16", "values": [{"measurement": "self-assembly", "setting": "[5]", "result": "No self-assembling is visible"}]}
